How the values were obtained:
Format in all cases: in vivo
[1] = tested on: morningglory (Ipomoea spp.); assay: Test A pre-/postemergence plant response
How it was run: (§1)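 Visually rated 0–100 injury (100 = complete control) versus untreated plants, ~10 days in greenhouse. Application pre- (soil spray, loam/sand) and postemergence (2–10 cm, 1–2 leaf stage), same timepoint.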

[2] = tested on: barnyardgrass (Echinochloa crus-galli); assay: Test A pre-/postemergence plant response
How it was run: as §1

[3] = tested on: large crabgrass (Digitaria sanguinalis); assay: Test A pre-/postemergence plant response
How it was run: as §1

corn (Zea mays) = assay: Test A pre-/postemergence plant response
How it was run: as §1

[4] = tested on: giant foxtail (Setaria faberii); assay: Test A pre-/postemergence plant response
How it was run: as §1

[5] = tested on: velvetleaf (Abutilon theophrasti); assay: Test A pre-/postemergence plant response
How it was run: as §1

[6] = tested on: wheat (Triticum aestivum); assay: Test A pre-/postemergence plant response
How it was run: as §1

[7] = tested on: pigweed (Amaranthus retroflexus); assay: Test A pre-/postemergence plant response
How it was run: as §1

[8] = tested on: umbrella sedge (Cyperus difformis); assay: Test B flooded paddy test; details: for Plant response rating, Flood, Sedge, Umbrella: 250 g ai/ha, flooded paddy test, visual rating on 0 to 100 scale (0 no effect, 100 complete control) after 13 to 15 days; for Plant response rating, Sedge, Umbrella: Flood (flooded paddy test), 13 to 15 days
How it was run: (§2)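 Rice, umbrella sedge, ducksalad and barnyardgrass were grown to the 2-leaf stage, flooded to 3 cm, and compound was applied directly to the paddy water, with that depth kept throughout. After 13 to 15 days in the greenhouse, plants were visually rated against controls on a 0 (no effect) to 100 (complete control) scale.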

[9] = tested on: barnyardgrass (Echinochloa crus-galli); assay: Test B flooded paddy test; details: for Plant response rating, Flood, Barnyardgrass: 250 g ai/ha, flooded paddy test, visual rating on 0 to 100 scale (0 no effect, 100 complete control) after 13 to 15 days; for Plant response rating, Barnyardgrass: Flood (flooded paddy test), 13 to 15 days
How it was run: as §2

[10] = tested on: ducksalad (Heteranthera limosa); assay: Test B flooded paddy test; details: for Plant response rating, Flood, Ducksalad: 250 g ai/ha, flooded paddy test, visual rating on 0 to 100 scale (0 no effect, 100 complete control) after 13 to 15 days; for Plant response rating, Ducksalad: Flood (flooded paddy test), 13 to 15 days
How it was run: as §2

rice (Oryza sativa) = assay: Test B flooded paddy test; details: for Plant response rating, Flood, Rice: 250 g ai/ha, flooded paddy test, visual rating on 0 to 100 scale (0 no effect, 100 complete control) after 13 to 15 days; for Plant response rating, Rice: Flood (flooded paddy test), 13 to 15 days
How it was run: as §2

[11] = Postemergence, 125 g ai/ha, 0 to 100 scale where 0 is no effect and 100 is complete control
[12] = Postemergence, 500 g ai/ha, 0 to 100 scale, 0 = no effect, 100 = complete control, approx. ten days
[13] = Preemergence, 125 g ai/ha, 0 to 100 scale, 0 = no effect, 100 = complete control
[14] = Preemergence, 500 g ai/ha, visual injury, 0 to 100 scale (0 no effect, 100 complete control), approx. ten days
[15] = 62 g ai/ha, scale of 0 to 100 where 0 is no effect and 100 is complete control
[16] = 125 g ai/ha, scale 0 to 100, 0 is no effect, 100 is complete control
[17] = Flood, 31 g ai/ha, scale 0 to 100 (0 no effect, 100 complete control)
[18] = Postemergence, 500 g ai/ha, visual injury, 0 to 100 scale (0 no effect, 100 complete control), approx. ten days
[19] = Preemergence, 500 g ai/ha, 0 to 100 scale, 0 = no effect, 100 = complete control
[20] = Postemergence, 125 g ai/ha, visual injury, 0 to 100 scale (0 no effect, 100 complete control), approx. ten days
[21] = 31 g ai/ha, scale of 0 to 100 where 0 is no effect and 100 is complete control
[22] = 62 g ai/ha, scale 0 to 100, 0 is no effect, 100 is complete control

CCCn1c(-c2ccccc2F)ncc(C(=O)C2=C(O)CCCC2=O)c1=O [Compound 101]
Plant response rating, Morningglory [1, 11]: 60 | Plant response rating, Morningglory [1, 12]: 70 | Plant response rating, Morningglory [1, 13]: 80 | Plant response rating, Morningglory [1, 14]: 80 | Plant response rating, Barnyardgrass [2, 11]: 80 | Plant response rating, Barnyardgrass [2, 12]: 90 | Plant response rating, Barnyardgrass [2, 13]: 20 | Plant response rating, Barnyardgrass [2, 14]: 70 | Plant response rating, Crabgrass, Large [3, 11]: 90 | Plant response rating, Crabgrass, Large [3, 12]: 90 | Plant response rating, Crabgrass, Large [3, 13]: 70 | Plant response rating, Crabgrass, Large [3, 14]: 90 | Plant response rating, Corn (corn (Zea mays); [11]): 0 | Plant response rating, Corn (corn (Zea mays); [12]): 10 | Plant response rating, Corn (corn (Zea mays); [13]): 0 | Plant response rating, Corn (corn (Zea mays); [14]): 0 | Plant response rating, Foxtail, Giant [4, 11]: 60 | Plant response rating, Foxtail, Giant [4, 12]: 80 | Plant response rating, Foxtail, Giant [4, 13]: 30 | Plant response rating, Foxtail, Giant [4, 14]: 50 | Plant response rating, Velvetleaf [5, 11]: 100 | Plant response rating, Velvetleaf [5, 12]: 100 | Plant response rating, Velvetleaf [5, 13]: 80 | Plant response rating, Velvetleaf [5, 14]: 100 | Plant response rating, Wheat [6, 11]: 0 | Plant response rating, Wheat [6, 12]: 0 | Plant response rating, Wheat [6, 13]: 0 | Plant response rating, Wheat [6, 14]: 0 | Plant response rating, Pigweed [7, 11]: 90 | Plant response rating, Pigweed [7, 12]: 100 | Plant response rating, Pigweed [7, 13]: 70 | Plant response rating, Pigweed [7, 14]: 80 | Plant response rating, Flood, Sedge, Umbrella [8]: 65 | Plant response rating, Sedge, Umbrella [8, 15]: 20 | Plant response rating, Sedge, Umbrella [8, 16]: 30 | Sedge, Umbrella plant response rating [8, 17]: 0 | Plant response rating, Flood, Barnyardgrass [9]: 40 | Plant response rating, Barnyardgrass [9, 15]: 40 | Plant response rating, Barnyardgrass [9, 16]: 40 | Barnyardgrass plant response rating [9, 17]: 20 | Plant response rating, Flood, Ducksalad [10]: 30 | Plant response rating, Ducksalad [10, 15]: 30 | Plant response rating, Ducksalad [10, 16]: 30 | Ducksalad plant response rating [10, 17]: 20 | Plant response rating, Flood, Rice (rice (Oryza sativa)): 20 | Plant response rating, Rice (rice (Oryza sativa); [15]): 0 | Plant response rating, Rice (rice (Oryza sativa); [16]): 0 | Rice plant response rating (rice (Oryza sativa); [17]): 0

O=C1CCCC(O)=C1C(=O)c1cnc(-c2cccc(Br)c2)n(C2CCCCC2)c1=O [Compound 206]
Plant response rating, Morningglory [1, 11]: 100 | Morningglory plant response rating [1, 18]: 100 | Plant response rating, Morningglory [1, 13]: 0 | Plant response rating, Morningglory [1, 19]: 0 | Plant response rating, Barnyardgrass [2, 11]: 90 | Barnyardgrass plant response rating [2, 18]: 100 | Plant response rating, Barnyardgrass [2, 13]: 0 | Plant response rating, Barnyardgrass [2, 19]: 20 | Plant response rating, Crabgrass, Large [3, 11]: 60 | Crabgrass, Large plant response rating [3, 18]: 100 | Plant response rating, Crabgrass, Large [3, 13]: 10 | Plant response rating, Crabgrass, Large [3, 19]: 60 | Plant response rating, Corn (corn (Zea mays); [11]): 0 | Corn plant response rating (corn (Zea mays); [18]): 0 | Plant response rating, Corn (corn (Zea mays); [13]): 0 | Plant response rating, Corn (corn (Zea mays); [19]): 0 | Plant response rating, Foxtail, Giant [4, 11]: 50 | Foxtail, Giant plant response rating [4, 18]: 90 | Plant response rating, Foxtail, Giant [4, 13]: 0 | Plant response rating, Foxtail, Giant [4, 19]: 60 | Plant response rating, Velvetleaf [5, 11]: 100 | Velvetleaf plant response rating [5, 18]: 100 | Plant response rating, Velvetleaf [5, 13]: 0 | Plant response rating, Velvetleaf [5, 19]: 60 | Plant response rating, Wheat [6, 11]: 0 | Wheat plant response rating [6, 18]: 0 | Plant response rating, Wheat [6, 13]: 0 | Plant response rating, Wheat [6, 19]: 0 | Plant response rating, Pigweed [7, 11]: 90 | Pigweed plant response rating [7, 18]: 100 | Plant response rating, Pigweed [7, 13]: 30 | Plant response rating, Pigweed [7, 19]: 80 | Plant response rating, Flood, Sedge, Umbrella [8]: 85 | Plant response rating, Sedge, Umbrella [8, 15]: 60 | Plant response rating, Flood, Barnyardgrass [9]: 0 | Plant response rating, Barnyardgrass [9, 15]: 0 | Plant response rating, Flood, Ducksalad [10]: 90 | Plant response rating, Ducksalad [10, 15]: 70 | Plant response rating, Flood, Rice (rice (Oryza sativa)): 20 | Plant response rating, Rice (rice (Oryza sativa); [15]): 0

Cc1cccc(-n2c(-c3ccccc3)ncc(C(=O)C3=C(O)CCCC3=O)c2=O)c1 [Compound 18]
Morningglory plant response rating [1, 20]: 40 | Plant response rating, Morningglory [1, 12]: 100 | Plant response rating, Morningglory [1, 13]: 20 | Plant response rating, Morningglory [1, 14]: 70 | Barnyardgrass plant response rating [2, 20]: 20 | Plant response rating, Barnyardgrass [2, 12]: 90 | Plant response rating, Barnyardgrass [2, 13]: 10 | Plant response rating, Barnyardgrass [2, 14]: 100 | Crabgrass, Large plant response rating [3, 20]: 30 | Plant response rating, Crabgrass, Large [3, 12]: 80 | Plant response rating, Crabgrass, Large [3, 13]: 60 | Plant response rating, Crabgrass, Large [3, 14]: 100 | Corn plant response rating (corn (Zea mays); [20]): 0 | Plant response rating, Corn (corn (Zea mays); [12]): 20 | Plant response rating, Corn (corn (Zea mays); [13]): 0 | Plant response rating, Corn (corn (Zea mays); [14]): 20 | Foxtail, Giant plant response rating [4, 20]: 40 | Plant response rating, Foxtail, Giant [4, 12]: 90 | Plant response rating, Foxtail, Giant [4, 13]: 40 | Plant response rating, Foxtail, Giant [4, 14]: 90 | Velvetleaf plant response rating [5, 20]: 100 | Plant response rating, Velvetleaf [5, 12]: 100 | Plant response rating, Velvetleaf [5, 13]: 30 | Plant response rating, Velvetleaf [5, 14]: 100 | Wheat plant response rating [6, 20]: 0 | Plant response rating, Wheat [6, 12]: 50 | Plant response rating, Wheat [6, 13]: 0 | Plant response rating, Wheat [6, 14]: 40 | Pigweed plant response rating [7, 20]: 100 | Plant response rating, Pigweed [7, 12]: 100 | Plant response rating, Pigweed [7, 13]: 70 | Plant response rating, Pigweed [7, 14]: 100 | Plant response rating, Flood, Sedge, Umbrella [8]: 85 | Plant response rating, Sedge, Umbrella [8, 21]: 0 | Plant response rating, Sedge, Umbrella [8, 22]: 30 | Plant response rating, Sedge, Umbrella [8, 16]: 50 | Plant response rating, Flood, Barnyardgrass [9]: 50 | Plant response rating, Barnyardgrass [9, 21]: 10 | Plant response rating, Barnyardgrass [9, 22]: 20 | Plant response rating, Barnyardgrass [9, 16]: 20 | Plant response rating, Flood, Ducksalad [10]: 90 | Plant response rating, Ducksalad [10, 21]: 20 | Plant response rating, Ducksalad [10, 22]: 50 | Plant response rating, Ducksalad [10, 16]: 65 | Plant response rating, Flood, Rice (rice (Oryza sativa)): 25 | Plant response rating, Rice (rice (Oryza sativa); [21]): 10 | Plant response rating, Rice (rice (Oryza sativa); [22]): 15 | Plant response rating, Rice (rice (Oryza sativa); [16]): 25

Cc1cccc(C)c1-n1c(-c2ccccc2)ncc(C(=O)C2=C(O)CCCC2=O)c1=O [Compound 31]
Morningglory plant response rating [1, 20]: 20 | Plant response rating, Morningglory [1, 12]: 70 | Plant response rating, Morningglory [1, 13]: 0 | Plant response rating, Morningglory [1, 14]: 50 | Barnyardgrass plant response rating [2, 20]: 10 | Plant response rating, Barnyardgrass [2, 12]: 80 | Plant response rating, Barnyardgrass [2, 13]: 0 | Plant response rating, Barnyardgrass [2, 14]: 40 | Crabgrass, Large plant response rating [3, 20]: 50 | Plant response rating, Crabgrass, Large [3, 12]: 90 | Plant response rating, Crabgrass, Large [3, 13]: 0 | Plant response rating, Crabgrass, Large [3, 14]: 90 | Corn plant response rating (corn (Zea mays); [20]): 0 | Plant response rating, Corn (corn (Zea mays); [12]): 20 | Plant response rating, Corn (corn (Zea mays); [13]): 0 | Plant response rating, Corn (corn (Zea mays); [14]): 0 | Foxtail, Giant plant response rating [4, 20]: 70 | Plant response rating, Foxtail, Giant [4, 12]: 90 | Plant response rating, Foxtail, Giant [4, 13]: 0 | Plant response rating, Foxtail, Giant [4, 14]: 40 | Velvetleaf plant response rating [5, 20]: 100 | Plant response rating, Velvetleaf [5, 12]: 100 | Plant response rating, Velvetleaf [5, 13]: 10 | Plant response rating, Velvetleaf [5, 14]: 70 | Wheat plant response rating [6, 20]: 0 | Plant response rating, Wheat [6, 12]: 0 | Plant response rating, Wheat [6, 13]: 0 | Plant response rating, Wheat [6, 14]: 0 | Pigweed plant response rating [7, 20]: 70 | Plant response rating, Pigweed [7, 12]: 100 | Plant response rating, Pigweed [7, 13]: 40 | Plant response rating, Pigweed [7, 14]: 80 | Plant response rating, Flood, Sedge, Umbrella [8]: 75 | Plant response rating, Sedge, Umbrella [8, 22]: 60 | Plant response rating, Flood, Barnyardgrass [9]: 0 | Plant response rating, Barnyardgrass [9, 22]: 0 | Plant response rating, Flood, Ducksalad [10]: 75 | Plant response rating, Ducksalad [10, 22]: 60 | Plant response rating, Flood, Rice (rice (Oryza sativa)): 0 | Plant response rating, Rice (rice (Oryza sativa); [22]): 0

Source: patent US8952024B2, “Herbicidal pyrimidone derivatives” (E I du Pont de Nemours and Company, priority 2009, dated 2015)
